Laboratory results published in US20230085307A1, “PYRIDAZINONE COMPOUND AND HERBICIDE” (NISSAN CHEMICAL CORPORATION, priority 2019, published 2023).

How the values were obtained:
lambsquarters [1] = experiment: Test Example 5: herbicidal effect by foliage application, plastic box (Table 20, symbol O); type: in vivo, lambsquarters (Chenopodium album); settings: foliage application, 320 g/ha, 3 weeks after application
Procedure, shortened: (§1)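 Foliar spray test: emulsion formulation diluted in water to a set application rate, sprayed onto 14-day-old plants raised in diluvial soil at 25° C to 30° C under glass. Both herbicidal effect and crop effect rated visually three weeks later.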

barnyard grass [2] = experiment: Test Example 4: herbicidal effect by soil treatment (Table 19, symbol H); type: in vivo, barnyard grass (Echinochloa crus-galli); settings: for H: barnyard grass, herbicidal effect rating: AAH 320 g/ha
Procedure, shortened: (§2)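 Step 1: sow seeds in sterilized diluvial soil, cover ~1.5 cm. Step 2: spray diluted emulsion onto soil surface at predetermined rate. Step 3: greenhouse, 25–30° C, three weeks. Step 4: grade effect on each plant by earlier criteria.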

lambsquarters [3] = experiment: Test Example 4: herbicidal effect by soil treatment (Table 19, symbol O); type: in vivo, lambsquarters (Chenopodium album); settings: for O: lambsquarters, herbicidal effect rating: AAH 320 g/ha
Procedure, shortened: as §2

blackgrass [4] = experiment: Test Example 5: herbicidal effect by foliage application, plastic box (Table 20, symbol J); type: in vivo, blackgrass (Alopecurus myosuroides); settings: foliage application, 320 g/ha, 3 weeks after application
Procedure, shortened: as §1

green foxtail [5] = experiment: Test Example 5: herbicidal effect by foliage application, plastic box (Table 20, symbol G); type: in vivo, green foxtail (Setaria viridis); settings: foliage application, 320 g/ha, 3 weeks after application
Procedure, shortened: as §1

rice flat sedge = experiment: Test Example 3: herbicidal effect by foliage application, Wagner pot (Table 18, symbol E); type: in vivo, rice flat sedge (Cyperus iria); settings: 320 g/ha
Procedure, shortened: (§3)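 Plants were sown in alluvial soil held under 0.1–0.5 cm standing water and grown 14 days in a greenhouse at 25–30 °C. An emulsifiable formulation, water-diluted to the set dose, was then sprayed onto the foliage, and effects were scored three weeks later using previously defined criteria.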

blackgrass [6] = experiment: Test Example 4: herbicidal effect by soil treatment (Table 19, symbol J); type: in vivo, blackgrass (Alopecurus myosuroides); settings: for J: blackgrass, herbicidal effect rating: AAH 320 g/ha
Procedure, shortened: as §2

Italian ryegrass [7] = experiment: Test Example 4: herbicidal effect by soil treatment (Table 19, symbol K); type: in vivo, Italian ryegrass (Lolium multiflorum); settings: for K: Italian ryegrass, herbicidal effect rating: AAH 320 g/ha
Procedure, shortened: as §2

chickweed = experiment: Test Example 4: herbicidal effect by soil treatment (Table 19, symbol P); type: in vivo, common chickweed (Stellaria media); settings: for P: chickweed, herbicidal effect rating: AAH 320 g/ha
Procedure, shortened: as §2

persian speedwell [8] = experiment: Test Example 4: herbicidal effect by soil treatment (Table 19, symbol R); type: in vivo, Persian speedwell (Veronica persica); settings: for R: persian speedwell, herbicidal effect rating: AAH 320 g/ha
Procedure, shortened: as §2

barnyard grass [9] = experiment: Test Example 5: herbicidal effect by foliage application, plastic box (Table 20, symbol H); type: in vivo, barnyard grass (Echinochloa crus-galli); settings: foliage application, 320 g/ha, 3 weeks after application
Procedure, shortened: as §1

southern crabgrass [10] = experiment: Test Example 4: herbicidal effect by soil treatment (Table 19, symbol F); type: in vivo, southern crabgrass (Digitaria ciliaris); settings: for F: southern crabgrass, herbicidal effect rating: AAH 320 g/ha
Procedure, shortened: as §2

persian speedwell [11] = experiment: Test Example 5: herbicidal effect by foliage application, plastic box (Table 20, symbol R); type: in vivo, Persian speedwell (Veronica persica); settings: foliage application, 320 g/ha, 3 weeks after application
Procedure, shortened: as §1

Chinese sprangletop = experiment: Test Example 3: herbicidal effect by foliage application, Wagner pot (Table 18, symbol D); type: in vivo, chinese sprangletop (Leptochloa chinensis); settings: 320 g/ha
Procedure, shortened: as §3

southern crabgrass [12] = experiment: Test Example 5: herbicidal effect by foliage application, plastic box (Table 20, symbol F); type: in vivo, southern crabgrass (Digitaria ciliaris); settings: foliage application, 320 g/ha, 3 weeks after application
Procedure, shortened: as §1

wild oat [13] = experiment: Test Example 4: herbicidal effect by soil treatment (Table 19, symbol I); type: in vivo, wild oat (Avena fatua); settings: for I: wild oat, herbicidal effect rating: AAH 320 g/ha
Procedure, shortened: as §2

windgrass [14] = experiment: Test Example 4: herbicidal effect by soil treatment (Table 19, symbol L); type: in vivo, windgrass (Apera spica-venti); settings: for L: windgrass, herbicidal effect rating: AAH 320 g/ha
Procedure, shortened: as §2

velvetleaf [15] = experiment: Test Example 5: herbicidal effect by foliage application, plastic box (Table 20, symbol M); type: in vivo, velvetleaf (Abutilon theophrasti); settings: foliage application, 320 g/ha, 3 weeks after application
Procedure, shortened: as §1

wild oat [16] = experiment: Test Example 5: herbicidal effect by foliage application, plastic box (Table 20, symbol I); type: in vivo, wild oat (Avena fatua); settings: foliage application, 320 g/ha, 3 weeks after application
Procedure, shortened: as §1

velvetleaf [17] = experiment: Test Example 4: herbicidal effect by soil treatment (Table 19, symbol M); type: in vivo, velvetleaf (Abutilon theophrasti); settings: for M: velvetleaf, herbicidal effect rating: AAH 320 g/ha
Procedure, shortened: as §2

Italian ryegrass [18] = experiment: Test Example 5: herbicidal effect by foliage application, plastic box (Table 20, symbol K); type: in vivo, Italian ryegrass (Lolium multiflorum); settings: foliage application, 320 g/ha, 3 weeks after application
Procedure, shortened: as §1

green foxtail [19] = experiment: Test Example 4: herbicidal effect by soil treatment (Table 19, symbol G); type: in vivo, green foxtail (Setaria viridis); settings: for G: green foxtail, herbicidal effect rating: AAH 320 g/ha
Procedure, shortened: as §2

windgrass [20] = experiment: Test Example 5: herbicidal effect by foliage application, plastic box (Table 20, symbol L); type: in vivo, windgrass (Apera spica-venti); settings: foliage application, 320 g/ha, 3 weeks after application
Procedure, shortened: as §1

redroot pigweed = experiment: Test Example 4: herbicidal effect by soil treatment (Table 19, symbol N); type: in vivo, redroot pigweed (Amaranthus retroflexus); settings: for N: redroot pigweed, herbicidal effect rating: AAH 320 g/ha
Procedure, shortened: as §2

barnyard grass [21] = experiment: Test Example 3: herbicidal effect by foliage application, Wagner pot (Table 18, symbol H); type: in vivo, barnyard grass (Echinochloa crus-galli); settings: 320 g/ha
Procedure, shortened: as §3

Structure (SMILES) | effect on lambsquarters (O) (lambsquarters [1]) | H: barnyard grass, herbicidal effect rating (barnyard grass [2]) | O: lambsquarters, herbicidal effect rating (lambsquarters [3]) | effect on blackgrass (J) (blackgrass [4]) | effect on green foxtail (G) (green foxtail [5]) | herbicidal effect on E (rice flat sedge), rating 0-5 (rice flat sedge) | J: blackgrass, herbicidal effect rating (blackgrass [6]) | K: Italian ryegrass, herbicidal effect rating (Italian ryegrass [7]) | P: chickweed, herbicidal effect rating (chickweed) | R: persian speedwell, herbicidal effect rating (persian speedwell [8]) | effect on barnyard grass (H) (barnyard grass [9]) | F: southern crabgrass, herbicidal effect rating (southern crabgrass [10]) | effect on persian speedwell (R) (persian speedwell [11]) | herbicidal effect on D (Chinese sprangletop), rating 0-5 (Chinese sprangletop) | effect on southern crabgrass (F) (southern crabgrass [12]) | effect on velvetleaf (M) (velvetleaf [15]) | effect on wild oat (I) (wild oat [16]) | effect on Italian ryegrass (K) (Italian ryegrass [18]) | effect on windgrass (L) (windgrass [20]) | herbicidal effect on H (barnyard grass), rating 0-5 (barnyard grass [21]) | also measured
CCCC(=O)Oc1c(OC)nn(C)c(=O)c1-c1c(-c2cc3ccccc3s2)sc2ccccc12 [1-197] | 1 (Herbicidal rate of 5% or more and less than 20%) | 0 (Herbicidal rate of 5% or less (almost no effect)) | 0 (Herbicidal rate of 5% or less (almost no effect)) | 0 (Herbicidal rate of 5% or less (almost no effect)) | 1 (Herbicidal rate of 5% or more and less than 20%) | 4 (Herbicidal rate of 70% or more and less than 90%) | 0 (Herbicidal rate of 5% or less (almost no effect)) | 0 (Herbicidal rate of 5% or less (almost no effect)) | 5 (Herbicidal rate of 90% or more (almost completely withered)) | 5 (Herbicidal rate of 90% or more (almost completely withered)) | 0 (Herbicidal rate of 5% or less (almost no effect)) | 0 (Herbicidal rate of 5% or less (almost no effect)) | 5 (Herbicidal rate of 90% or more (almost completely withered)) | 2 (Herbicidal rate of 20% or more and less than 40%) | 0 (Herbicidal rate of 5% or less (almost no effect)) | 3 (Herbicidal rate of 40% or more and less than 70%) | 0 (Herbicidal rate of 5% or less (almost no effect)) | 0 (Herbicidal rate of 5% or less (almost no effect)) | 0 (Herbicidal rate of 5% or less (almost no effect)) | 4 (Herbicidal rate of 70% or more and less than 90%) | I: wild oat, herbicidal effect rating (wild oat [13]): 0 (Herbicidal rate of 5% or less (almost no effect)); L: windgrass, herbicidal effect rating (windgrass [14]): 0 (Herbicidal rate of 5% or less (almost no effect)); M: velvetleaf, herbicidal effect rating (velvetleaf [17]): 0 (Herbicidal rate of 5% or less (almost no effect)); G: green foxtail, herbicidal effect rating (green foxtail [19]): 0 (Herbicidal rate of 5% or less (almost no effect)); N: redroot pigweed, herbicidal effect rating (redroot pigweed): 0 (Herbicidal rate of 5% or less (almost no effect))
Cc1nn(C)c(=O)c(-c2c(-c3ccc(O)cc3)sc3ccccc23)c1O [1-200] | 4 (Herbicidal rate of 70% or more and less than 90%) | 0 (Herbicidal rate of 5% or less (almost no effect)) | 0 (Herbicidal rate of 5% or less (almost no effect)) | 0 (Herbicidal rate of 5% or less (almost no effect)) | 3 (Herbicidal rate of 40% or more and less than 70%) | 3 (Herbicidal rate of 40% or more and less than 70%) | 0 (Herbicidal rate of 5% or less (almost no effect)) | 0 (Herbicidal rate of 5% or less (almost no effect)) | 1 (Herbicidal rate of 5% or more and less than 20%) | 3 (Herbicidal rate of 40% or more and less than 70%) | 4 (Herbicidal rate of 70% or more and less than 90%) | 0 (Herbicidal rate of 5% or less (almost no effect)) | 5 (Herbicidal rate of 90% or more (almost completely withered)) | 3 (Herbicidal rate of 40% or more and less than 70%) | 3 (Herbicidal rate of 40% or more and less than 70%) | 5 (Herbicidal rate of 90% or more (almost completely withered)) | 0 (Herbicidal rate of 5% or less (almost no effect)) | 1 (Herbicidal rate of 5% or more and less than 20%) | 0 (Herbicidal rate of 5% or less (almost no effect)) | 4 (Herbicidal rate of 70% or more and less than 90%) | I: wild oat, herbicidal effect rating (wild oat [13]): 0 (Herbicidal rate of 5% or less (almost no effect)); L: windgrass, herbicidal effect rating (windgrass [14]): 0 (Herbicidal rate of 5% or less (almost no effect)); M: velvetleaf, herbicidal effect rating (velvetleaf [17]): 0 (Herbicidal rate of 5% or less (almost no effect)); G: green foxtail, herbicidal effect rating (green foxtail [19]): 0 (Herbicidal rate of 5% or less (almost no effect)); N: redroot pigweed, herbicidal effect rating (redroot pigweed): 0 (Herbicidal rate of 5% or less (almost no effect))
Cc1nn(C)c(=O)c(-c2c(-c3ccc(F)cc3)sc3ccc(F)cc23)c1OS(=O)(=O)N(C)C [2-009] | 3 (Herbicidal rate of 40% or more and less than 70%) |  |  | 0 (Herbicidal rate of 5% or less (almost no effect)) | 5 (Herbicidal rate of 90% or more (almost completely withered)) | 4 (Herbicidal rate of 70% or more and less than 90%) |  |  |  |  | 4 (Herbicidal rate of 70% or more and less than 90%) |  | 5 (Herbicidal rate of 90% or more (almost completely withered)) | 3 (Herbicidal rate of 40% or more and less than 70%) | 5 (Herbicidal rate of 90% or more (almost completely withered)) | 4 (Herbicidal rate of 70% or more and less than 90%) | 0 (Herbicidal rate of 5% or less (almost no effect)) | 4 (Herbicidal rate of 70% or more and less than 90%) | 0 (Herbicidal rate of 5% or less (almost no effect)) | 5 (Herbicidal rate of 90% or more (almost completely withered)) | herbicidal effect rating, H: barnyard grass (barnyard grass [2]; 320 g/ha): 0 (Herbicidal rate of 5% or less (almost no effect)); herbicidal effect rating, O: lambsquarters (lambsquarters [3]; 320 g/ha): 3 (Herbicidal rate of 40% or more and less than 70%); herbicidal effect rating, J: blackgrass (blackgrass [6]; 320 g/ha): 0 (Herbicidal rate of 5% or less (almost no effect)); herbicidal effect rating, K: Italian ryegrass (Italian ryegrass [7]; 320 g/ha): 4 (Herbicidal rate of 70% or more and less than 90%); herbicidal effect rating, P: chickweed (chickweed; 320 g/ha): 4 (Herbicidal rate of 70% or more and less than 90%); herbicidal effect rating, R: persian speedwell (persian speedwell [8]; 320 g/ha): 3 (Herbicidal rate of 40% or more and less than 70%); herbicidal effect rating, F: southern crabgrass (southern crabgrass [10]; 320 g/ha): 1 (Herbicidal rate of 5% or more and less than 20%); herbicidal effect rating, I: wild oat (wild oat [13]; 320 g/ha): 0 (Herbicidal rate of 5% or less (almost no effect)); herbicidal effect rating, L: windgrass (windgrass [14]; 320 g/ha): 0 (Herbicidal rate of 5% or less (almost no effect)); herbicidal effect rating, M: velvetleaf (velvetleaf [17]; 320 g/ha): 2 (Herbicidal rate of 20% or more and less than 40%); herbicidal effect rating, G: green foxtail (green foxtail [19]; 320 g/ha): 3 (Herbicidal rate of 40% or more and less than 70%); herbicidal effect rating, N: redroot pigweed (redroot pigweed; 320 g/ha): 5 (Herbicidal rate of 90% or more (almost completely withered))
